In PubChem BioAssay (NCI) one finds GI50 and TGI data, which are given here for seven compounds.

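Following 48 hours of exposure in 96-well plates, responses at five concentrations were used to interpolate endpoints linearly. Abbreviation: GI50, concentration required for 50% inhibition of growth. TGI marks complete inhibition of growth.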 Some results are limits rather than exact numbers.

Among the test systems are HCT-116 colon; HL-60(TB) leukemia; UACC-257 melanoma; MDA-MB-435; SK-MEL-2 melanoma; OVCAR-3 ovarian; HCT-15 colon; IGROV1 ovarian; UACC-62 melanoma; U251 CNS.
What all share (experiment): NCI-60 cell line screen, 48 h

Consider `COc1ccc(/C(C)=C(\c2ccc(Cl)cc2)c2ccc(OCCN3CCCCC3)cc2)cc1F`, for which the GI50 with HCT-116 colon was 2.04 µM; in the assay with HL-60(TB) leukemia, 2.85 µM; with UACC-257 melanoma it was 3.1 µM; in the assay with MDA-MB-435 it was 2.71 µM; in the assay on SK-MEL-2 melanoma, 3.53 µM; with OVCAR-3 ovarian it was 3.25 µM. Besides, the GI50 is 0.943 µM in the assay on HCT-15 colon, 3.16 µM in the assay on IGROV1 ovarian, 3.68 µM with UACC-62 melanoma and 2.68 µM in the assay with U251 CNS. Further, the TGI in the assay with HCT-116 colon amounted to 5.14 µM; in the assay on HL-60(TB) leukemia, 6.82 µM; in the assay with UACC-257 melanoma it was 7.04 µM; with MDA-MB-435, 5.37 µM; with SK-MEL-2 melanoma it was 7.65 µM; in the assay on OVCAR-3 ovarian it was 6.65 µM. Besides, the TGI in the assay on HCT-15 colon came out at 3.37 µM; in the assay with IGROV1 ovarian, 9.37 µM; in the assay on UACC-62 melanoma, 8.9 µM; in the assay with U251 CNS, 6.51 µM.
With `CC(=O)OC1C(OC/C2=C/C3[C@@H](C(C)C)CC=C(C)[C@@H]3CC(OC(=O)/C=C/c3cn(C)cn3)[C@]3(C)C=C[C@@]2(O)O3)OCC(O)C1O` (stereo partly drawn), the GI50 in the assay with HCT-116 colon was 0.011 µM; with HL-60(TB) leukemia it was 0.0164 µM; in the assay with UACC-257 melanoma it was 0.0188 µM; in the assay on MDA-MB-435, 0.00626 µM; in the assay on SK-MEL-2 melanoma it was 0.0199 µM; with OVCAR-3 ovarian it was 0.0105 µM. In addition, the GI50 in the assay with HCT-15 colon was 1.2 µM; with IGROV1 ovarian, 0.0737 µM; in the assay on UACC-62 melanoma, 0.0242 µM; with U251 CNS it was 0.016 µM. Further, the TGI with HCT-116 colon was over 50 µM; in the assay on HL-60(TB) leukemia, 1.51 µM; in the assay with UACC-257 melanoma, over 50 µM; in the assay on MDA-MB-435, 0.0208 µM; in the assay on OVCAR-3 ovarian, 0.0268 µM; in the assay on HCT-15 colon, over 50 µM. The TGI was over 50 µM with IGROV1 ovarian, over 50 µM in the assay on UACC-62 melanoma and over 30.3 µM with U251 CNS.
As for `N#Cc1ccccc1C#C/C=C\C#Cc1cnccn1`, the GI50 in the assay on HCT-116 colon was 12.5 µM; with HL-60(TB) leukemia it was 3.23 µM; in the assay with UACC-257 melanoma it was 26.5 µM; in the assay with MDA-MB-435 it was 3.14 µM; in the assay with SK-MEL-2 melanoma, 8.34 µM; in the assay with OVCAR-3 ovarian, 1.22 µM. The GI50 in the assay with HCT-15 colon was 20.6 µM; with IGROV1 ovarian, 38.1 µM; in the assay on UACC-62 melanoma, 14.5 µM; in the assay on U251 CNS, 30.5 µM. Besides, the TGI in the assay on HCT-116 colon was over 100 µM; in the assay on HL-60(TB) leukemia, over 24.1 µM; in the assay on UACC-257 melanoma it was over 82.3 µM; in the assay with SK-MEL-2 melanoma it was over 100 µM; in the assay with OVCAR-3 ovarian, 18.3 µM; in the assay with HCT-15 colon it was over 61 µM. Moreover, the TGI is over 100 µM in the assay on IGROV1 ovarian, over 89.9 µM with UACC-62 melanoma and over 100 µM with U251 CNS.
In the case of `N#Cc1c(-c2ccc(Cl)cc2)n([O-])c2ccccc2[n+]1=O`, the GI50 is 3.03 µM with HCT-116 colon; 3.1 µM with HL-60(TB) leukemia; 18.2 µM in the assay on UACC-257 melanoma; 13.7 µM in the assay with MDA-MB-435; 37.3 µM in the assay on SK-MEL-2 melanoma; 1.27 µM in the assay with OVCAR-3 ovarian. For the same compound, the GI50 in the assay on HCT-15 colon was 13.7 µM; in the assay with IGROV1 ovarian it was 2.89 µM; with UACC-62 melanoma it was 17.2 µM; in the assay on U251 CNS, 4.37 µM. The TGI was 11.1 µM with HCT-116 colon; 11.4 µM in the assay on HL-60(TB) leukemia; 34.4 µM with UACC-257 melanoma; 27 µM in the assay on MDA-MB-435; over 100 µM in the assay with SK-MEL-2 melanoma; 2.88 µM in the assay on OVCAR-3 ovarian. Also, the TGI with HCT-15 colon turned out to be 37.5 µM; in the assay with IGROV1 ovarian it was 15.6 µM; with UACC-62 melanoma, 33.6 µM; in the assay with U251 CNS, 17.1 µM.
On to `COc1ccc(/C=C2\CN(Cc3cn(CCCNc4ccnc5cc(Cl)ccc45)nn3)C/C(=C\c3ccc(OC)cc3)C2=O)cc1`, for which the GI50 is 2.8 µM with HCT-116 colon; 3.27 µM in the assay on HL-60(TB) leukemia; 8.28 µM in the assay on UACC-257 melanoma; 1.6 µM in the assay with MDA-MB-435; 9.85 µM in the assay with SK-MEL-2 melanoma; 4.91 µM with OVCAR-3 ovarian. Besides, the GI50 in the assay with HCT-15 colon was 1.83 µM; in the assay on IGROV1 ovarian it was 4.86 µM; in the assay with UACC-62 melanoma, 16.3 µM; in the assay with U251 CNS it was 5.53 µM. For the same compound, the TGI in the assay with HCT-116 colon stood at 12.4 µM; in the assay with HL-60(TB) leukemia it was 18.2 µM; with UACC-257 melanoma, 23.3 µM; with MDA-MB-435 it was 3.02 µM; in the assay on SK-MEL-2 melanoma, 39.6 µM; in the assay with OVCAR-3 ovarian, 18.1 µM. Further, the TGI with HCT-15 colon was 5.14 µM; in the assay with IGROV1 ovarian, 17.6 µM; with UACC-62 melanoma, 32.1 µM; in the assay on U251 CNS, 18.9 µM.
Consider `Cn1c(N)c(N=Nc2ccc(S(N)(=O)=O)cc2)c(=O)n(C)c1=O`, for which the TGI in the assay on HCT-116 colon, in the assay with HL-60(TB) leukemia, in the assay with UACC-257 melanoma, in the assay with MDA-MB-435, in the assay on SK-MEL-2 melanoma and with OVCAR-3 ovarian was over 100 µM each time. The TGI with HCT-15 colon, in the assay on IGROV1 ovarian, in the assay on UACC-62 melanoma and with U251 CNS was over 100 µM in each case.
Regarding `O=C(NC(c1ccccc1)C(O)C(=O)OCc1ccc2c(c1)C(=O)c1ccccc1C2=O)c1ccccc1` (stereo not drawn), the TGI was 39.1 µM in the assay with HCT-116 colon; over 100 µM in the assay on HL-60(TB) leukemia; over 72 µM in the assay with UACC-257 melanoma; over 100 µM in the assay with MDA-MB-435; 86.9 µM in the assay on SK-MEL-2 melanoma; 34.6 µM with OVCAR-3 ovarian. Besides, the TGI is over 100 µM in the assay on HCT-15 colon, 48.5 µM in the assay on IGROV1 ovarian, 53 µM in the assay on UACC-62 melanoma and 18.3 µM in the assay on U251 CNS.
